Measurements taken from PubChem BioAssay (NCI).
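Values below derive from 48-hour exposures of cells grown in 96-well plates, with endpoints linearly interpolated between the two concentrations bracketing the appropriate inhibition level. At the GI50, growth is halved. Definition used: TGI = concentration required for complete inhibition of growth.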

How the values were obtained:
Assay in all cases: inhibition of tumour cell growth, NCI panel, 48 h
[1] = tested on: SF-268 CNS
[2] = tested on: SF-539 CNS
[3] = tested on: SK-MEL-5 melanoma
[4] = tested on: MALME-3M melanoma
[5] = tested on: SK-MEL-28 melanoma
[6] = tested on: NCI/ADR-RES ovarian
[7] = tested on: CAKI-1 renal
[8] = tested on: TK-10 renal
[9] = tested on: SR leukemia
[10] = tested on: MOLT-4 leukemia

Row | SMILES | TGI [1] [µM] | TGI [2] [µM] | TGI [3] [µM] | TGI [4] [µM] | TGI [5] [µM] | TGI [6] [µM] | TGI [7] [µM] | TGI [8] [µM] | TGI [9] [µM] | TGI [10] [µM] | GI50 [1] [µM] | GI50 [2] [µM] | GI50 [3] [µM] | GI50 [4] [µM] | GI50 [5] [µM] | GI50 [6] [µM] | GI50 [7] [µM] | GI50 [8] [µM] | GI50 [9] [µM] | GI50 [10] [µM]
1 | Oc1ccccc1/C=N/c1nc2cc3sc(/N=C/c4ccccc4O)nc3cc2s1 | > 100 | > 100 | > 100 | > 100 | > 100 | > 100 | > 100 | > 100 | > 42.1 | 81.2 | – | – | – | – | – | – | – | – | – | –
2 | CCOC(=O)c1c(-c2ccc(OC)cc2)c(C#N)c(=S)n(C2OC(COC(C)=O)C(OC(C)=O)C(OC(C)=O)C2OC(C)=O)c1C (centres undefined) | > 100 | > 100 | > 100 | > 100 | > 100 | > 100 | > 100 | > 100 | > 100 | > 100 | – | – | – | – | – | – | – | – | – | –
3 | O=C(/C=C/c1ccsc1)c1ccsc1 | > 100 | 37.9 | 35.1 | 75.1 | 89.3 | > 100 | 41.4 | 74.4 | 46.5 | 44.7 | – | – | – | – | – | – | – | – | – | –
4 | C=CCn1c(=O)ccn(COCCO)c1=O | > 100 | > 100 | > 100 | > 100 | > 100 | > 100 | > 100 | > 100 | > 100 | > 100 | – | – | – | – | – | – | – | – | – | –
5 | COc1nc(C#CCC(C)O)nc(OC)n1 (centres undefined) | 69.6 | 59.2 | 34.7 | 25.6 | > 100 | 43.5 | 31.9 | 57.7 | > 100 | > 100 | – | – | – | – | – | – | – | – | – | –
6 | CCN(CC)CCOc1ccc(N2C(=O)c3cc(OC)c(OC)cc3C2=O)cc1 | > 100 | > 100 | > 100 | > 100 | > 100 | > 100 | > 100 | > 100 | > 100 | > 100 | – | – | – | – | – | – | – | – | – | –
7 | Clc1ccc(-c2nn3c(-c4ccncc4)nnc3s2)cc1 | > 100 | > 100 | > 100 | > 100 | – | > 100 | > 100 | > 100 | > 100 | > 100 | – | – | – | – | – | – | – | – | – | –
8 | CC1CC[C@@]2(OC1)OC1C[C@H]3[C@@H]4CC[C@H]5CC(OC6OC(CO)C(OC7OC(CO)C(O)C(O)C7OC7OC(CO)C(O)C(O)C7O)C(O)C6O)CCC5(C)[C@H]4CCC3(C)C1[C@@H]2C (some centres undefined) | 8.77 | 2.92 | 13.5 | 12.5 | 8.32 | 13.8 | 10.6 | 5.36 | 7.95 | 3.54 | – | – | – | – | – | – | – | – | – | –
9 | O=P(c1ccccc1)(c1ccccc1)N1O[C@@H](c2ccccc2)C=C[C@H]1c1ccccc1 | 26.2 | 33 | 24.6 | 29.2 | 38.3 | 24 | 22.4 | 27.8 | 50.4 | 27.5 | – | – | – | – | – | – | – | – | – | –
10 | C=CC[C@]12C[C@@H](C(=O)OC)N(C(=O)OC)[C@H]1N(S(=O)(=O)c1ccccc1)c1ccccc12 | > 100 | > 100 | > 100 | > 100 | > 100 | > 100 | > 100 | > 100 | > 100 | > 100 | – | – | – | – | – | – | – | – | – | –
11 | CCCNC(=O)CCC(C)[C@H]1CCC2C3C(C[C@H](OC(C)=O)[C@@]21C)[C@@]1(C)CCC2(C[C@H]1C[C@H]3OC(C)=O)OOC1(CCC(C)CC1)OO2 (some centres undefined) | 50.8 | 33.8 | 28.6 | 40.3 | > 100 | 40.5 | 5.14 | 58.8 | 36.5 | > 100 | – | – | – | – | – | – | – | – | – | –
12 | C=C[C@@H]1C(CO)=CCC2[C@H]1CCC1C(C)(C)C(=O)CC[C@]21C (some centres undefined) | > 100 | > 100 | > 100 | > 100 | > 100 | > 100 | > 100 | > 100 | > 100 | > 100 | – | – | – | – | – | – | – | – | – | –
13 | CC(C)/C(Cl)=N\OC(=O)Nc1ccc(C#N)cc1 | 36.7 | 29.4 | 9.91 | 6.81 | 25 | 32.2 | 10.3 | 12.9 | > 25.6 | 5.41 | – | – | – | – | – | – | – | – | – | –
14 | O=C1CN2C(c3ccccc3)=NN(c3ccc([N+](=O)[O-])cc3)C2(c2ccccc2)c2cc(Cl)ccc2N1CC1CC1 (centres undefined) | > 100 | > 100 | > 100 | > 100 | > 100 | > 100 | > 100 | > 100 | > 100 | > 100 | – | – | – | – | – | – | – | – | – | –
15 | CCCCC1c2c([nH]c3ccccc23)C2C(=O)N(c3ccc(OC)cc3)C(=O)C2C1CCC (centres undefined) | > 10 | 5.11 | > 10 | 9.42 | > 10 | 5.68 | 6.25 | > 10 | 8.22 | 7.97 | – | – | – | – | – | – | – | – | – | –
16 | CN(C)CCCN1C(=S)N(CCCN(C)C)c2c3cc(O)ccc3nc3c([N+](=O)[O-])ccc1c23 | 7 | 17.1 | 12.1 | 22.2 | 10.8 | 22.4 | 15 | 29 | > 22.5 | 8.81 | – | – | – | – | – | – | – | – | – | –

Row | SMILES | TGI [1] [µM] | TGI [2] [µM] | TGI [3] [µM] | TGI [4] [µM] | TGI [5] [µM] | TGI [6] [µM] | TGI [7] [µM] | TGI [8] [µM] | TGI [9] [µM] | TGI [10] [µM] | GI50 [1] [µM] | GI50 [2] [µM] | GI50 [3] [µM] | GI50 [4] [µM] | GI50 [5] [µM] | GI50 [6] [µM] | GI50 [7] [µM] | GI50 [8] [µM] | GI50 [9] [µM] | GI50 [10] [µM]
17 | CC(C)COP(=O)(OCC(C)C)C(NS(=O)(=O)c1ccccc1)(C(F)(F)F)C(F)(F)F | 34.7 | 29.1 | 33 | 32.4 | 37.1 | 23.6 | 18.6 | 15.6 | 38.1 | 14.9 | – | – | – | – | – | – | – | – | – | –
18 | COc1ccc(C2(CC(C)O)SCCCS2)cc1 (centres undefined) | > 100 | > 100 | > 100 | > 100 | > 100 | > 100 | > 100 | > 100 | > 100 | > 100 | – | – | – | – | – | – | – | – | – | –
19 | CS(=O)(=O)OCCn1c(=O)n(CCOS(C)(=O)=O)c(=O)n(CCOS(C)(=O)=O)c1=O | > 100 | > 100 | > 100 | > 100 | > 100 | > 100 | > 100 | > 100 | > 100 | > 100 | – | – | – | – | – | – | – | – | – | –
20 | C/C(CC1C2CCCC1C2)=N\NC(N)=O (centres undefined) | > 100 | > 100 | > 100 | > 100 | > 100 | > 100 | > 100 | > 100 | > 100 | > 100 | – | – | – | – | – | – | – | – | – | –
21 | O=C(CCCN1CCC2(CC1)CC(=O)N(N1CCOCC1)C2=O)c1ccccc1 | > 100 | > 100 | > 100 | > 100 | > 100 | > 100 | > 100 | > 100 | > 100 | > 100 | – | – | – | – | – | – | – | – | – | –
22 | O=c1cc(N=P(c2ccccc2)(c2ccccc2)c2ccccc2)n(-c2ccccc2)c(=O)n1-c1ccccc1 | > 100 | 17.7 | 24.1 | 33.5 | > 100 | > 100 | > 100 | > 100 | 24.6 | 22 | – | – | – | – | – | – | – | – | – | –
23 | O=c1c2cc3c(cc2[nH]c2ncccc12)OCO3 | > 10 | > 10 | > 10 | > 10 | > 10 | > 10 | > 10 | > 10 | > 10 | > 10 | – | – | – | – | – | – | – | – | – | –
24 | CCCn1c(CN(Cc2nc3ccccc3n2CCC)Cc2nc3ccccc3n2CCC)nc2ccccc21 | 27.9 | > 50.9 | 18.1 | 23.3 | 38.1 | > 100 | > 29 | > 100 | 11.8 | 40.8 | – | – | – | – | – | – | – | – | – | –
25 | Cc1ccccc1C(O)(c1nccn1C)c1nccn1C | > 100 | > 100 | > 100 | > 100 | > 100 | > 100 | > 100 | > 100 | > 100 | > 100 | – | – | – | – | – | – | – | – | – | –
26 | CN(C)c1nc(=NCc2ccccc2)ss1 | > 10 | > 10 | > 10 | > 10 | > 10 | > 10 | > 10 | > 10 | 6.37 | > 6.19 | – | – | – | – | – | – | – | – | – | –
27 | COc1ccc(C(OCC2OC(n3cc(C)c(=O)[nH]c3=O)CC2n2cc(Cn3cc(F)c(=O)[nH]c3=O)nn2)(c2ccccc2)c2ccccc2)cc1 (centres undefined) | 35 | 23.9 | 30.1 | 31.8 | 24.9 | > 100 | 25 | 33.9 | 8.84 | 18.6 | – | – | – | – | – | – | – | – | – | –
28 | Nc1c(-c2cccc3ccccc23)c2ccc([N+](=O)[O-])cc2c(=O)n1-c1nc2ccccc2s1 | > 31.7 | 14.8 | 37.7 | 13.4 | > 100 | 10.5 | > 31.6 | > 100 | > 100 | > 27.5 | – | – | – | – | – | – | – | – | – | –
29 | Brc1cccc(Nc2nc(-c3cccs3)nc3ccc(Br)cc23)c1 | > 100 | > 100 | 30.9 | 65.2 | > 100 | > 100 | 68.5 | 88 | > 100 | > 100 | – | – | – | – | – | – | – | – | – | –
30 | COc1ccc2cc(-c3ccc(-c4ccc(C(=N)N)s4)s3)ccc2c1 | 4.97 | 19.2 | 30.2 | 11.5 | 6.04 | 4.87 | 21.9 | 29.2 | 3.38 | 6.7 | 2.1 | 3.91 | 16.1 | 3.32 | 2.5 | 2.29 | 8.29 | 14.2 | 0.851 | 2.17
31 | CC12CC(=O)C3C(C(=O)C1)C32C (centres undefined) | > 100 | > 100 | > 100 | > 100 | > 100 | > 100 | > 100 | > 100 | > 100 | > 100 | – | – | – | – | – | – | – | – | – | –
32 | COc1cc2c(cc1-c1c(C)noc1C)cc(C)c(=O)n2Cc1ccccn1 | > 100 | 13.2 | 10.7 | 7.45 | > 100 | > 100 | 23.2 | 18.3 | > 100 | > 100 | 4.22 | 0.983 | 1.99 | 1.14 | 3.33 | 1.34 | 0.284 | 0.34 | 0.709 | 3.13
